Legend:
NRK-52E cells [1] = test: CCK-8 cell viability assay; format: cell-based, rat
Protocol: AAI was prepared to make a series of working dilutions in serum-free DMEM. The NRK-52E cells were plated in 96-well plates at a density of 5 ×10^4 cells/mL for 24 h at 37 °C and then challenged with various concentrations of AAI (0, 1, 2, 4, 8, 16, 32, 64, 128 and 256 μM). Cell viability was assessed using the CCK-8 assay.
NRK-52E cells were seeded in 96-well plates at a density of 5 × 10^4 cells/mL and incubated for 24 h at 37 °C. Following pretreatment with various concentrations of JBP485 (7.8125, 15.625, 31.25, 62.5, 125, and 250 μM) for 2.5 h, the cells were challenged with AAI (11 μM) for 24 h. Cell viability was subsequently assayed using a CCK-8 kit.

hOAT1 = target: T1, hOAT1 (Homo sapiens, UniProt Q4U2R8); test: Uptake of AAI by hOAT1-transfected HEK293 cells with or without JBP485; format: cell-based
T1 construct: expressed in transfected cells; host or cells: HEK293
T1 sequence (Q4U2R8 1-563): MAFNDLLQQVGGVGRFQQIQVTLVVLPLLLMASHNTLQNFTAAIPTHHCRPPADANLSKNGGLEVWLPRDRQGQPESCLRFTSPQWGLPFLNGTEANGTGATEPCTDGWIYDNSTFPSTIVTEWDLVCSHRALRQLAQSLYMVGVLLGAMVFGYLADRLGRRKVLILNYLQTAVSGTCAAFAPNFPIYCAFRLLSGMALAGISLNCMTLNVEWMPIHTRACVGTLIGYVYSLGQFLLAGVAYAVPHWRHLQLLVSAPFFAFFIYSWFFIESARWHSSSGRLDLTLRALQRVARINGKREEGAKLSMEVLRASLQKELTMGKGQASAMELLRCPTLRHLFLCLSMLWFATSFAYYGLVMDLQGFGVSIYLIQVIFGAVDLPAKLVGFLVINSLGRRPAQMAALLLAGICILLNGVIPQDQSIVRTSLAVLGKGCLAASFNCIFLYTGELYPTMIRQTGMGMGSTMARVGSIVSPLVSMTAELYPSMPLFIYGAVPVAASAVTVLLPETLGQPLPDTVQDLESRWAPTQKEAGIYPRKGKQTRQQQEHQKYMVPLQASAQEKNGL
Protocol: Uptake experiments with hOAT1/3-HEK293 cells were performed as previously described ([Zhu et al., 2020]). Uptake was initiated by adding transport buffer (1 mL) with AAI (1 μM) and/or JBP485 (500 μM) after the cells were washed twice and incubated with transport buffer at 37°C. Moreover, the concentration-dependent uptake of AAI and the effects of JBP485 on AAI uptake were examined. Uptake was terminated upon the removal of the medium. The cells were washed three times with 1 mL of ice-cold Hanks’ balanced salt solution, lysed with 0.3 mL of 0.1% (v/v) Triton X-100, and then transferred to a polythene tube for quantification by LC-MS/MS. The protein level was measured using the BCA method (Solarbio, Beijing, China) with bovine serum albumin serving as the standard.
(§1) The concentrations of the test compounds in plasma, urine, and cell lysates were determined using an Agilent HP1200 liquid chromatography system (Agilent Technology Inc., SC, CA, United States) and an API 3200 triple-quadrupole mass spectrometer (Applied Biosystems, SC, CA, United States). After protein precipitation using acetonitrile, the analyte was separated on a Hypersil BDS C18 column. The mobile phase consisted of acetonitrile and water containing 0.1% (v/v) formic acid (80:20, v/v). The flow rate was 0.4 mL/min. The mass spectrometer was equipped with an electrospray ionization (ESI) source. Data were acquired in positive ion mode and dynamic multiple reaction monitoring (MRM) mode. The ESI source conditions were as follows: ion spray voltage, 5.5 kV; ion source temperature, 600°C; Gas source 1 (GS1, N2) pressure, 50 psi; Gas source 2 (GS2, N2) pressure, 60 psi; curtain gas (CUR) pressure, 12 psi; and collision gas (CAD) pressure, 10 psi. EP and CXP were set at […] for all analytes. The scan range was m/z 359.9→298.1 for AAI and m/z 130.0→71.2 for IS (Internal Standard, metformin). […] Intra- and inter-day precision was lower than 4.5% with reference to relative standard deviation, while accuracy was within ±6.5% in terms of relative error for analytes. Analyst software (version 1.4.1) was used for equipment control and data acquisition and analysis.

NRK-52E cells [2] = test: Intracellular ROS level by DCFH-DA flow cytometry; format: cell-based, rat
Protocol: NRK-52E cells were plated in 6-well culture plates at a density of 5 ×10^4 cells/mL and treated with various concentrations of JBP485 (62.5, 125 and 250 μM) for 2.5 h. After challenge with AAI (11 μM) for 24 h, the cells were harvested and resuspended in 500 μL of DCFH-DA (10 μM) for the detection of ROS by flow cytometry (Becton Dickinson, United States) (Aagaard et al., 2014).

[3] = In vivo renal clearance / pharmacokinetics of AAI after intravenous administration with or without JBP485; design: species or system rat; conditions: rats, i.v.
Protocol: Rats were randomly assigned to an AAI (4 mg/kg) group or an AAI (4 mg/kg) + JBP485 (50 mg/kg) group (n = 5 per group). The drugs were diluted in normal saline and administered intravenously via the left jugular vein. Subsequently, blood samples (0.2 mL) were collected via the right jugular vein with heparinized syringes at 1, 3, 5, 10, 30, 60, 120, 240, 360, and 480 min post-treatment. Isotonic saline solution (0.2 mL) was injected after each blood sample collection. Urine was collected directly from the bladder at 2, 4, 6, and 8 h after drug administration. AAI concentrations were measured by LC–MS/MS. Pharmacokinetic parameters, renal clearance (CLR), and cumulative urinary excretion were calculated.
as §1

[4] = AAI 4 mg/kg with or without JBP485 50 mg/kg, n = 5

| Compound | survival rates of NRK-52E cells challenged with AAI (NRK-52E cells [1]; JBP485 7.8125-250 μM pretreatment 2.5 h, AAI 11 μM 24 h) | toxicity against NRK-52E cells (NRK-52E cells [1]; JBP485 alone, concentrations up to 256 μM) | type of inhibition of AAI uptake (hOAT1; hOAT1-HEK293 cells, Km increased, Vmax unchanged) | IC50 (hOAT1; hOAT1-transfected HEK293 cells, substrate AAI, read-out: IC50 of inhibition of AAI uptake, OAT1) | ROS production in NRK-52E cells (NRK-52E cells [2]; JBP485 alone vs control) | AAI-induced rise in ROS production in NRK-52E cells (NRK-52E cells [2]; JBP485 co-administered with AAI 11 μM) | cumulative urinary excretion of AAI over 8 h ([3]; co-treatment with JBP485 50 mg/kg vs AAI 4 mg/kg alone) | AAI plasma concentrations ([3]; concurrent JBP485 50 mg/kg vs AAI 4 mg/kg alone) | concentration at which proliferation of NRK-52E cells is significantly inhibited (as low as) (NRK-52E cells [1]; CCK-8) | IC50 (NRK-52E cells [1]; CCK-8, read-out: IC50 for NRK-52E cells (cytotoxicity)) | Km (hOAT1; hOAT1-HEK293 cells, with or without JBP485, Eadie-Hofstee, n = 3) | Vmax of AAI uptake (hOAT1; hOAT1-HEK293 cells, with or without JBP485, n = 3) | ROS generation in NRK-52E cells (NRK-52E cells [2]; AAI alone 11 μM 24 h vs control) | AUC0-∞ of AAI [3, 4] | AUC(0-t) of AAI [3, 4] | CLR (renal clearance) of AAI [3, 4] | CLp (plasma clearance) of AAI [3, 4] | Vd of AAI [3, 4] | t1/2β of AAI [3, 4] |
| --- | --- | --- | --- | --- | --- | --- | --- | --- | --- | --- | --- | --- | --- | --- | --- | --- | --- | --- | --- |
| O=C1N[C@@H](CO)C(=O)N2C[C@H](O)C[C@@H]12 (relative stereo) [JBP485, cyclo-trans-4-L-hydroxyprolyl-L-serine] | dose-dependently increased | no JBP485-related toxicity | competitive inhibition | 89.8 ± 12.3 µM | did not alter | significantly attenuated | reduction | significantly increased |  |  |  |  |  |  |  |  |  |  |  |
| COc1cccc2c1cc([N+](=O)[O-])c1c(C(=O)O)cc3c(c12)OCO3 [AAI, Aristolochic Acid I] |  |  |  |  |  |  |  |  | 2000 nM | 11 µM | 15.7 ± 0.4 µM | 0.141 ± 0.04 nmol/mg protein/1min | significant increase | 536.2 ± 14.3 µg·min/L | 496.0 ± 14.5 µg·min/L | 74.4 ± 5.4 L/h/kg | 450 ± 12 L/h/kg | 232.9 ± 13.0 L/kg | 1.61 ± 0.107 h |
